# Reference: patent US20100080786A1, “Phenyl or Pyridinyl Substituted Indazoles Derivatives” (priority 2008, published 2010)
# Target: T1, Human Glucocorticoid Receptor (GR) (Homo sapiens, UniProt P04150)
# T1 construct: The full length GR was diluted to a final concentration of 3.3% (0.495 mg/ml) in assay buffer
# T1 sequence (P04150 1-777): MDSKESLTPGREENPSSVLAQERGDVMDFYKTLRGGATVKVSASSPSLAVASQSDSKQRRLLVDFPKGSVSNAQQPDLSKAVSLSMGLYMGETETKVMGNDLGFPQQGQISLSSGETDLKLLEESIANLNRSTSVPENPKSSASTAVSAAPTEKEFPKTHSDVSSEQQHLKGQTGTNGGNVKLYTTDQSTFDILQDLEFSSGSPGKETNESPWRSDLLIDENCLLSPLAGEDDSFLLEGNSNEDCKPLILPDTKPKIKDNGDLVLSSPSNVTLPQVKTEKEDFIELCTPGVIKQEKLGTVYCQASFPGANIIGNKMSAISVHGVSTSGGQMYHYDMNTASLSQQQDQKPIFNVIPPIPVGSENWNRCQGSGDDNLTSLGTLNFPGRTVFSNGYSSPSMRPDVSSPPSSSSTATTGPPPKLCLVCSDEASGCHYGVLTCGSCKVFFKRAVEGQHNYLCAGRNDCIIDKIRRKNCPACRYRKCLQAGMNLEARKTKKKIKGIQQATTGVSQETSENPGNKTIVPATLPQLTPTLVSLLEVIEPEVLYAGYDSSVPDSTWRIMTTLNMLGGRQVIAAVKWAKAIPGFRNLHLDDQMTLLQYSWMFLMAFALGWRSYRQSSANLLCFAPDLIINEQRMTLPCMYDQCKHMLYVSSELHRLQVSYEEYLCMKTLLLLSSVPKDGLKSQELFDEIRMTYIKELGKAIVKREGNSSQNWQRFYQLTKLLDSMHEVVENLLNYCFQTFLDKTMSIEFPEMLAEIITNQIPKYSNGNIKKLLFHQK
# Test: Human Glucocorticoid Receptor (GR) radioligand binding assay (3H-dexamethasone competition)
# Details: full length GR; 7 nM 3H-dexamethasone; 2 h at room temperature
# Description: Human Glucocorticoid Receptor (GR) Assay
# The radioligand GR binding assay is based on a competition assay using ^3H-labeled Dexamethasone. Dexamethasone is known to bind in the ligand binding domain of GR and compete for binding with endogenous ligands like e.g. cortisol (Necela, 2003). In the GR radioligand binding assay, test compounds were serially diluted in semi-log steps (10 concentrations) with a final concentration of 10 μM. Test compounds (1 μL) and controls (1 μL) in 100% DMSO were added to 96 Greiner V-bottom polypropylene plates. 0% control was 6.7% DMSO (final concentration in assay) and 100% control was 6.7 μM Dexamethasone.
# The full length GR was diluted to a final concentration of 3.3% (0.495 mg/ml) in assay buffer (20 mM Tris-HCl, 1 mM EDTA, 10% (w/v) Glycerol, 20 mM Sodium molybdate, pH 7.4). 45 μL of GR was added to each well and the plates were incubated for 15 min at room temperature.
# ^3H-dexamethasone solution was diluted to a concentration of 70 nM in assay buffer (7 nM final assay concentration) and 5 μL was added to each well. The samples were mixed for 5 min using a plate shaker at 700 rpm, before incubation for 2 h at room temperature.
# 50 μL ice-cold charcoal solution (pH 7.4:2% Charcoal, 0.2% Dextran T70 in 20 mM Tris-HCl, 1 mM EDTA and 20 mM Sodium molybdate) was added to each well and the samples were mixed on plate shaker for 5 minutes.
# The plate was then centrifuged for 1.5 min at 1500 rpm, the samples (80 μL) were is transferred from each well to a filter plate (Millipore, 0.45 μm, MHVBN45) on a vacuum manifold and then collected into new plates (Greiner, 96 well white/transparent, 655095). The filter plate was washed once with 20 μl of water and then 100 μL of scintillation liquid was added to each well and mixed by incubation on plate shaker for 5 min. Radioactivity was measured in a 1450 Microbeta Trilux Reader (Wallac) counting cpm for 2 minutes per well. The data obtained from each replicate experiment were analysed using the software ActivityBase, version 5.4.3 (ID Business Solutions Ltd) and IC50 values were calculated. Ref: Necela, B M, Cidlowski, J A, Trends Pharmacol Sci, 24: 58, 2003
row,IC50,Structure (SMILES)
1,16.9 nM,"C[C@H](NC(=O)C(C)(F)F)[C@H](Oc1ccc2c(cnn2-c2cccc(C(=O)NCCN3CCNC3=O)c2)c1)c1ccccc1 [Example 7, 3-[5-({(1R,2S)-2-[(2,2-difluoropropanoyl)amino]-1-phenylpropyl}oxy)-1H-indazol-1-yl]-N-[2-(2-oxoimidazolidin-1-yl)ethyl]benzamide]"
2,2.29 nM,"C[C@H](NC(=O)C(C)(F)F)[C@H](Oc1ccc2c(cnn2-c2cccc(C(=O)NCCC(N)=O)c2)c1)c1ccccc1 [Example 19, N-(3-amino-3-oxopropyl)-3-[5-({(1R,2S)-2-[(2,2-difluoropropanoyl)amino]-1-phenylpropyl}oxy)-1H-indazol-1-yl]benzamide]"
3,2.99 nM,"COc1ccc([C@@H](Oc2ccc3c(cnn3-c3cccc(C(=O)NC4CCOC4)c3)c2)[C@H](C)NC(=O)C(C)(F)F)cn1 (stereo partly drawn) [Example 25, 3-(5-{[(1R,2S)-2-[(2,2-difluoropropanoyl)amino]-1-(6-methoxypyridin-3-yl)propyl]oxy}-1H-indazol-1-yl)-N-(tetrahydrofuran-3-yl)benzamide]"
